pIC50: −log10 of the molar value.
Assays:
[1] = biological target: Aldo-keto reductase family 1 member B1 (Rattus norvegicus, UniProt P07943); test: Inhibition of Fischer 344 rat eye lens ALR2 using D,L-glyceraldehyde as substrate measured up to 4 mins at 30 degC using NaHCO3/DMSO-dissolved compound by spectrophotometric analysis
[2] = biological target: Aldo-keto reductase family 1 member B1 (Rattus norvegicus) (UniProt P07943); test: Inhibition of Fischer 344 rat eye lens ALR2 using D,L-glyceraldehyde as substrate measured up to 4 mins at 30 degC NaHCO3/DMSO-dissolved compound at 100 uM by spectrophotometric analysis relative to control; details: time min <=4
[3] = biological target: Aldo-keto reductase family 1 member A1 (Rattus norvegicus, UniProt P51635); test: Inhibition of Fischer 344 rat kidney ALR1 using sodium D-glucuronate as substrate measured up to 4 mins at […] using NaHCO3/DMSO-dissolved compound by spectrophotometric analysis
Rattus norvegicus = organism: Rattus norvegicus; test: Selectivity index, ratio of IC50 for Fischer 344 rat kidney ALR1 using sodium D-glucuronate as substrate measured up to 4 mins at 30 degC to IC50 for Fischer 344 rat eye lens ALR2 using D,L-glyceraldehyde as substrate measured up to 4 mins at 30 degC; details: time min <=4

Sequence of Aldo-keto reductase family 1 member A1 (P51635 whole entry, looked up): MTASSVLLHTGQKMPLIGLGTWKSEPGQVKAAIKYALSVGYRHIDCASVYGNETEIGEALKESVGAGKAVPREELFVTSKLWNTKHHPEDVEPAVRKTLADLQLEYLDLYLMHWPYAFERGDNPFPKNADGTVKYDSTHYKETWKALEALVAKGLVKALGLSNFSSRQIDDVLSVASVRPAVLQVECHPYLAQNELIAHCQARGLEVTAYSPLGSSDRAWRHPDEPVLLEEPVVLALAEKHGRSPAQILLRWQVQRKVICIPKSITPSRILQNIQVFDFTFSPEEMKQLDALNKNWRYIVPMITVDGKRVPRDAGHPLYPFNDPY

## O=S(=O)(c1ccc(O)cc1)c1c[nH]c2ccccc12
[1]
  pIC50: 4.22

## O=S(=O)(c1ccccc1O)n1ccc2ccccc21
[1]
  pIC50: 4.85

## O=S(=O)(c1cc2ccccc2[nH]1)c1ccccc1O
[2]
  inhibition: 12.3%

## O=S(=O)(c1ccc(O)c(F)c1)n1ccc2ccccc21
[1]
  pIC50: 6.01
[3]
  pIC50: 4.93
Rattus norvegicus
  Ratio IC50: 11.9

## O=S(=O)(c1ccc(O)cc1)n1ccc2ccccc21
[1]
  pIC50: 5.35
[3]
  pIC50: 5.33
Rattus norvegicus
  Ratio IC50: 1.05

## O=S(=O)(c1ccc(O)cc1)c1cc2ccccc2[nH]1
[1]
  pIC50: 4.43

## O=S(=O)(c1ccccc1O)c1c[nH]c2ccccc12
[2]
  inhibition: 14.6%

Reference: ChEMBL document CHEMBL4725281, “Design synthesis and evaluation of novel aldose reductase inhibitors: The case of indolyl-sulfonyl-phenols” (Bioorg Med Chem, 2020)
